{
  "source": "paper PMC3269340",
  "about": "“Pharmacokinetics of memantine in rats and mice” (PLoS Currents, 2012)",
  "key": {"human PEPT1": {"target": "T1, human PEPT1 (Homo sapiens, UniProt P46059)", "T1 sequence (P46059 1-708)": "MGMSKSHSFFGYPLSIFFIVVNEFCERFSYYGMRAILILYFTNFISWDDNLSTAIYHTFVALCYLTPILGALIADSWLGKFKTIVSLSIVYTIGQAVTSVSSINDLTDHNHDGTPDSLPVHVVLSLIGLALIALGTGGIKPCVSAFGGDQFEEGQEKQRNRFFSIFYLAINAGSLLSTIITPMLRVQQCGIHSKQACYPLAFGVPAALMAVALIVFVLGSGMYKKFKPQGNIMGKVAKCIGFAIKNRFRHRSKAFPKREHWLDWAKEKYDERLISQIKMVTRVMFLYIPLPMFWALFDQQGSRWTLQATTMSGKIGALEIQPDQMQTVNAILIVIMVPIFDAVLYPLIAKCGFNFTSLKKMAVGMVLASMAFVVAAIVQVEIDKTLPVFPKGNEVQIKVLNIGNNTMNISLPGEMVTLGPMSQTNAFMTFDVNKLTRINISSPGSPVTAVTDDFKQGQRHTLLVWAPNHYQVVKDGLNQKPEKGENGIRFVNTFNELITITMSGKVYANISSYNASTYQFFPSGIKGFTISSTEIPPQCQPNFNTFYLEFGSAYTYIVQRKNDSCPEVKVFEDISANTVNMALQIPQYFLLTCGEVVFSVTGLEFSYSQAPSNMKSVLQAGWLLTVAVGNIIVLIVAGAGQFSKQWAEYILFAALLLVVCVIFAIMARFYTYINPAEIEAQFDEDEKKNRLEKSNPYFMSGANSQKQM", "assay": "Direct uptake transporter assay, PEPT1", "assay_type": "in vitro ADME", "details": "for Accumulation in transporter transfected cells: PEPT1-transfected cells; for Accumulation in parental cells: parental CHO cells (PEPT1 line)", "protocol": "To determine whether memantine is a substrate of the human OATP2B1 (OATP-B), OCT1, OCT2, OAT3, PEPT1, PEPT2 uptake transporters.\nThe potential for memantine to be a substrate of an uptake transporter was determined directly by comparing the uptake of memantine into cells expressing the selected uptake transporter with its uptake into control cells. Memantine was added to transporter-expressing and control cells at two concentrations (PEPT1 and PEPT2 100 and 300 µM, OCT1 and OCT2 50 and 100 µM, OATP2B1 100 and 300 µM), and incubated with cells for 2 and 20 min at 37±1°C (75 µL final incubation volume). The final concentrations of memantine were selected to be the IC50 of reporter substrate transport inhibition established in the indirect transporter assay and one order of magnitude lower. Incubations were carried out as described in the indirect uptake transporter assays. The concentration of memantine was determined by LC-MS/MS."}, "[1]": {"assay": "Bidirectional Caco permeability", "assay_type": "in vitro ADME", "details": "human, Caco-2, pH 7.4", "protocol": "(§1) CacoReady ^TM 24-transwell plates with plated Caco cells were purchased from Advancell, and were prepared for the experiments following manufacturer’s instructions. Memantine and reference compounds (propranolol, digoxin and vinblatine) were added to either the apical or basolateral chambers of the transwell plate assembly at a concentration of 10 μM prepared in Hanks’ Balanced Salt Solution containing 25 mM HEPES (pH7.4). Lucifer Yellow (LY) was added to the donor buffer in all wells to assess viability of the cell layer. Since LY cannot freely permeate lipophilic barriers, results were rejected when a high degree of LY transport (>100nm/s) was observed. After a 1 h incubation at 37°C, aliquots were taken from both chambers and added to acetonitrile containing an analytical internal standard in a 96-well plate. Concentrations of compound in the samples were measured by (HPLC-MS/MS).\n(§2) Papp values were calculated from the relationship:\n(§3) Papp = ([compound]acceptor final × Va )/ (A × time ([compound]donor initial )\n(§4) The efflux ratio (Er) was calculated as\n(§5) Er = Papp (B to A) / Papp (A to B)"}, "Caco2 cells": {"system": "Caco2 cells", "assay": "Bidirectional Caco permeability", "assay_type": "in vitro ADME", "details": "Caco2 cells", "protocol": "as §1, §2, §3, §4, §5"}, "[2]": {"assay": "Human pharmacokinetics (literature)", "assay_type": "in vivo"}, "rat AD model": {"system": "rat AD model", "details": "cited from earlier work"}},
  "note": "Read-outs that look alike come from different tables or passages of the source.",
  "data": [
    {"smiles": "CC12CC3CC(C)(C1)CC(N)(C3)C2", "note": "[memantine]", "values": [
      {"measurement": "Highest Fold Activation", "setting": "human PEPT1; PEPT1, 100µM, 20 min", "result": "1.1 (100µM, 20 min)"},
      {"measurement": "Accumulation in transporter transfected cells", "setting": "human PEPT1; 2 min, 100 µM", "result": 1073, "unit": "pmol/mg"},
      {"measurement": "Accumulation in transporter transfected cells", "setting": "human PEPT1; 2 min, 300 µM", "result": 2290, "unit": "pmol/mg"},
      {"measurement": "Accumulation in transporter transfected cells", "setting": "human PEPT1; 20 min, 100 µM", "result": 1087, "unit": "pmol/mg"},
      {"measurement": "Accumulation in transporter transfected cells", "setting": "human PEPT1; 20 min, 300 µM", "result": 1682, "unit": "pmol/mg"},
      {"measurement": "substrate of PEPT1 uptake transporter", "setting": "human PEPT1; no preferential accumulation in transfected over parental cells", "result": "not a substrate"},
      {"measurement": "Accumulation in parental cells", "setting": "human PEPT1; 2 min, 100 µM", "result": 969, "unit": "pmol/mg"},
      {"measurement": "Accumulation in parental cells", "setting": "human PEPT1; 2 min, 300 µM", "result": 2389, "unit": "pmol/mg"},
      {"measurement": "Accumulation in parental cells", "setting": "human PEPT1; 20 min, 100 µM", "result": 981, "unit": "pmol/mg"},
      {"measurement": "Accumulation in parental cells", "setting": "human PEPT1; 20 min, 300 µM", "result": 1614, "unit": "pmol/mg"},
      {"measurement": "Papp A→B at 1 h, 10 μM", "setting": "[1]; 10 μM, pH7.4, 1 h, read-out: Caco Permeability AtoB", "result": 434, "unit": "nm/s"},
      {"measurement": "Papp B→A at 1 h, 10 μM", "setting": "[1]; 10 μM, pH7.4, 1 h, read-out: Caco Permeability BtoA", "result": 470, "unit": "nm/s"},
      {"measurement": "efflux ratio at 1 h, 10 μM", "setting": "[1]; Papp (B to A) / Papp (A to B), read-out: ER (efflux ratio)", "result": "~1"},
      {"measurement": "MDR1 (Pgp) substrate", "setting": "Caco2 cells", "result": "not a MDR1 (Pgp) substrate"},
      {"measurement": "Contribution of active transport to clearance", "setting": "[2]", "result": "30-40%"},
      {"measurement": "renal clearance higher than human GFR of 125 mL/min", "setting": "[2]", "result": "approximately 30%"},
      {"measurement": "total systemic clearance, times higher than GFR", "setting": "[2]", "result": "~1.4", "unit": "fold"},
      {"measurement": "total systemic clearance, times higher than GFR", "setting": "[2]; listed as Memantine", "result": "~ 1.4 fold"},
      {"measurement": "clearance", "setting": "[2]; plasma, oral, 10 mg, estimated, read-out: Cl p (converted)", "result": 0.16, "unit": "L/h/kg"},
      {"measurement": "cognition", "setting": "rat AD model", "result": "improved cognition"},
      {"measurement": "neuroprotection", "setting": "rat AD model", "result": "elicited neuroprotective effects"}
    ]}
  ]
}
